Where a name gives a salt, the structure may show the parent alone.
What was measured:
[1] = molecular target: GSK3alpha (Homo sapiens, UniProt P49840); assay: GSK3alpha assay (same as the GSK3beta assay, GSK3alpha 0.25 ng/μl); assay type: biochemical; conditions: −log IC50 (M); given as ranges (>8; 7-8; <7); read-out: pIC50 (GSK3alpha) (converted)
Outline: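 GSK3α at 0.25 ng/μl phosphorylated 5 μM biotinylated phospho-CREB peptide with 1 μM ATP and 33P-ATP for 1 h at room temperature, in 25 mM Tris pH 7.4 with 10 mM MgCl2 and 1 mM DTT. Phosphorylated peptide was captured on streptavidin SPA beads and counted. IC50 was taken from dose-response curves.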

[2] = molecular target: GSK3β (Homo sapiens, UniProt P49841); assay: GSK3beta assay (SPA, biotinylated phosphorylated CREB peptide, ATP-P33); assay type: biochemical; conditions: −log IC50 (M); given as ranges (>8; 7-8; <7); read-out: pIC50 (GSK3beta) (converted)
Outline: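 Radiometric SPA at room temperature, pH 7.4 Tris/MgCl2/DTT/BSA/glycerol, with 5.7 ng/μl GSK3β, 5 μM biotinylated phospho-CREB peptide, 1 μM ATP plus 33P-ATP for 1 h. Stopped with streptavidin SPA beads, counted after overnight settling; % inhibition versus no-compound control, IC50 from dose-response curve.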

GSK3β, sequence (P49841 whole entry, species assumed): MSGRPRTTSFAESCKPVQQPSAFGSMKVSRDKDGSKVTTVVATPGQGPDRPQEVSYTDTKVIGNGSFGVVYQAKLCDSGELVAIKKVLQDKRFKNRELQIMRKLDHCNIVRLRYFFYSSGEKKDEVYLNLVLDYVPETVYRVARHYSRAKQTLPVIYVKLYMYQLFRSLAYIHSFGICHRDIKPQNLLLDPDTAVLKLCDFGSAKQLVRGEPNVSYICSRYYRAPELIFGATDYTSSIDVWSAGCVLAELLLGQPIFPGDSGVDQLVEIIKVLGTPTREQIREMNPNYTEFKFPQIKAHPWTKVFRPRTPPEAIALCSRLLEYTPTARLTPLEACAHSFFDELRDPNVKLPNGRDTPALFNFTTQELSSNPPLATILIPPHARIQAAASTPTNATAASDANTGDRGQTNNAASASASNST
GSK3alpha, sequence (P49840 whole entry, species assumed): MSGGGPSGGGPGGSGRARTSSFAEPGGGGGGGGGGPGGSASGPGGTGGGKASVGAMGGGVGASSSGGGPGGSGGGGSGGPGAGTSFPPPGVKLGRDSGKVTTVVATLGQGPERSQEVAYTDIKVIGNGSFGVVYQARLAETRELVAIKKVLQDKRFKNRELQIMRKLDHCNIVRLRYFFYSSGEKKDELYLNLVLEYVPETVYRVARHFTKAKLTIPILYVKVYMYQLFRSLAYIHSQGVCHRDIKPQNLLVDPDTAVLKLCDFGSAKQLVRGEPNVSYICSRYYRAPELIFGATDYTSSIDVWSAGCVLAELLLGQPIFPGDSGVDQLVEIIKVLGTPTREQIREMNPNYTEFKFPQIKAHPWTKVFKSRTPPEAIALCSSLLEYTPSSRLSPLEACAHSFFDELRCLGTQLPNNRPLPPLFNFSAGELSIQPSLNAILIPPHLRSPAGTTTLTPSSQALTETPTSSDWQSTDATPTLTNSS

| SMILES | melting point | IC50 [1] | IC50 [2] |
| --- | --- | --- | --- |
| Nc1cccc(Nc2ncc3nnn(-c4cccc(F)c4)c3n2)c1 (as salt: HCl) [Compound 12] | 224 °C |  |  |
| CS(=O)(=O)Nc1cccc(Nc2ncc3nnn(-c4cccc(CCO)c4)c3n2)c1 [Compound 256] |  | < 1e-08 M | < 1e-08 M |
| O=C(O)c1ccc(Nc2ncc3nnn(-c4cccc(CCO)c4)c3n2)cc1 [Compound 257] |  | < 1e-08 M | < 1e-08 M |
| N#Cc1cccc(Nc2ncc3nnn(-c4cccc(CCO)c4)c3n2)c1 [Compound 258] |  | < 1e-08 M | < 1e-08 M |
| NC(=O)c1ccc(Nc2ncc3nnn(-c4cccc(CCO)c4)c3n2)cc1 [Compound 259] |  | < 1e-08 M | < 1e-08 M |
| OCCc1ccc(Nc2ncc3nnn(-c4cccc(CCO)c4)c3n2)cc1 [Compound 260] |  | < 1e-08 M | < 1e-08 M |
| OCCc1cccc(-n2nnc3cnc(Nc4ccc(F)cc4)nc32)c1 [Compound 261] |  | < 1e-08 M | < 1e-08 M |
| COCCOc1cccc(Nc2ncc3nnn(-c4cccc(CCO)c4)c3n2)c1 [Compound 262] |  | < 1e-08 M | < 1e-08 M |
| CS(=O)(=O)Nc1cccc(Nc2ncc3nnn(-c4cccc(CC#N)c4)c3n2)c1 [Compound 264] |  | < 1e-08 M | < 1e-08 M |
| N#CCc1cccc(-n2nnc3cnc(Nc4ccc(F)cc4)nc32)c1 [Compound 265] |  | < 1e-08 M | < 1e-08 M |
| COCc1cccc(Nc2ncc3nnn(-c4cccc(CC#N)c4)c3n2)c1 [Compound 266] |  | < 1e-08 M | < 1e-08 M |
| COc1ccc(Nc2ncc3nnn(-c4cccc(CC#N)c4)c3n2)cn1 [Compound 267] |  | < 1e-08 M | < 1e-08 M |
| N#CCc1cccc(-n2nnc3cnc(Nc4ccc(CCO)cc4)nc32)c1 [Compound 268] |  | < 1e-08 M | < 1e-08 M |
| COC(=O)c1cc(Nc2ncc3nnn(-c4cccc(CC#N)c4)c3n2)ccc1NC(C)=O [Compound 269] |  | < 1e-08 M | < 1e-08 M |
| CC(C)(C)OC(=O)NCc1cccc(-n2nnc3cnc(Nc4ccc(F)cc4)nc32)c1 [Compound 270] |  | < 1e-08 M | < 1e-08 M |
| NC(=O)Cc1cccc(-n2nnc3cnc(Nc4cccc(C(=O)NCCO)c4)nc32)c1 [Compound 271] |  | < 1e-08 M | < 1e-08 M |
| N#CCc1cccc(-n2nnc3cnc(Nc4cccc(C#N)c4)nc32)c1 [Compound 272] |  | < 1e-08 M | < 1e-08 M |
| CS(=O)(=O)Nc1cccc(Nc2ncc3nnn(-c4cccc(CC(N)=O)c4)c3n2)c1 [Compound 273] |  | < 1e-08 M | < 1e-08 M |
| N#CCc1cccc(-n2nnc3cnc(Nc4ccc(C(N)=O)cc4)nc32)c1 [Compound 274] |  | < 1e-08 M | < 1e-08 M |
| N#CCc1cccc(-n2nnc3cnc(Nc4cccc(C(=O)NCCO)c4)nc32)c1 [Compound 275] |  | < 1e-08 M | < 1e-08 M |
| N#CCc1cccc(-n2nnc3cnc(Nc4cccc(CCO)c4)nc32)c1 [Compound 276] |  | < 1e-08 M | < 1e-08 M |
| N#CCc1cccc(-n2nnc3cnc(Nc4cccc(CO)c4)nc32)c1 [Compound 277] |  | < 1e-08 M | < 1e-08 M |
| CC(O)c1cccc(Nc2ncc3nnn(-c4cccc(CC#N)c4)c3n2)c1 (stereo not shown) [Compound 278] |  | < 1e-08 M | < 1e-08 M |

| SMILES | melting point | IC50 [1] | IC50 [2] |
| --- | --- | --- | --- |
| NCc1cccc(-n2nnc3cnc(Nc4ccc(F)cc4)nc32)c1 [Compound 279] |  | 1e-08 to 1e-07 M | 1e-08 to 1e-07 M |
| N#Cc1ccc(Nc2ncc3nnn(-c4cccc(CCO)c4)c3n2)cc1 [Compound 285] |  | < 1e-08 M | < 1e-08 M |
| COCCOCc1cccc(-n2nnc3cnc(Nc4ccc(C(N)=O)cc4)nc32)c1 [Compound 286] |  | < 1e-08 M | < 1e-08 M |
| COCCOCc1cccc(-n2nnc3cnc(Nc4ccc(CCO)cc4)nc32)c1 [Compound 289] |  | < 1e-08 M | < 1e-08 M |
| OCCc1ccc(-n2nnc3cnc(Nc4ccc(F)cc4)nc32)cc1 [Compound 291] |  | < 1e-08 M | 1e-08 to 1e-07 M |
| OCCc1ccc(Nc2ncc3nnn(-c4ccc(CCO)cc4)c3n2)cc1 [Compound 293] |  | < 1e-08 M | > 1e-07 M |
| CC(C)(C)OC(=O)NCc1ccc(Nc2ncc3nnn(-c4cccc(F)c4)c3n2)cc1 [Compound 294] |  | < 1e-08 M | < 1e-08 M |
| NCc1ccc(Nc2ncc3nnn(-c4cccc(F)c4)c3n2)cc1 [Compound 295] |  | < 1e-08 M | 1e-08 M |
| CN(C)CCOc1ccc(Nc2ncc3nnn(-c4cccc(F)c4)c3n2)cc1 [Compound 296] |  | 1e-08 to 1e-07 M | 1e-08 to 1e-07 M |
| COCCOc1cccc(-n2nnc3cnc(Nc4ccc(F)cc4)nc32)c1 [Compound 301] |  | < 1e-08 M | 1e-08 to 1e-07 M |
| COCCOc1cccc(-n2nnc3cnc(Nc4ccc(CNC(=O)OC(C)(C)C)cc4)nc32)c1 [Compound 302] |  | < 1e-08 M | 1e-08 to 1e-07 M |
| COCCOc1cccc(-n2nnc3cnc(Nc4cccc(CNC(=O)OC(C)(C)C)c4)nc32)c1 [Compound 303] |  | < 1e-08 M | 1e-08 to 1e-07 M |
| COCc1cccc(-n2nnc3cnc(Nc4ccc(C(=O)O)c(OC)c4)nc32)c1 [Compound 304] |  | < 1e-08 M | < 1e-08 M |
| COCCOc1cccc(-n2nnc3cnc(Nc4ccc(CN)cc4)nc32)c1 [Compound 305] |  | < 1e-08 M | 1e-08 to 1e-07 M |
| Fc1cccc(-n2nnc3cnc(Nc4ccc(CNCC(F)(F)F)cc4)nc32)c1 [Compound 306] |  | < 1e-08 M | < 1e-08 M |
| NC(=O)c1ccc(Nc2ncc3nnn(-c4cccc(F)c4)c3n2)cc1 [Compound 307] |  | < 1e-08 M | < 1e-08 M |
| CNC(=O)c1ccc(Nc2ncc3nnn(-c4cccc(F)c4)c3n2)cc1 [Compound 308] |  | < 1e-08 M | < 1e-08 M |
| CN(C)C(=O)c1ccc(Nc2ncc3nnn(-c4cccc(F)c4)c3n2)cc1 [Compound 309] |  | < 1e-08 M | < 1e-08 M |
| NCc1ccc(Nc2ncc3nnn(-c4cccc(CCO)c4)c3n2)cc1 [Compound 310] |  | < 1e-08 M | < 1e-08 M |
| N#CCc1cccc(-n2nnc3cnc(Nc4ccc(CNCC(F)(F)F)cc4)nc32)c1 [Compound 311] |  | < 1e-08 M | < 1e-08 M |
| COCCOc1cccc(-n2nnc3cnc(Nc4ccc(CNCC(F)(F)F)cc4)nc32)c1 [Compound 312] |  | < 1e-08 M | 1e-08 to 1e-07 M |
| N#CCc1cccc(-n2nnc3cnc(Nc4ccc(CN)cc4)nc32)c1 [Compound 313] |  | < 1e-08 M | < 1e-08 M |
| COCCOCc1cccc(-n2nnc3cnc(Nc4ccc(CN)cc4)nc32)c1 [Compound 314] |  | 1e-08 to 1e-07 M | 1e-08 to 1e-07 M |

| SMILES | melting point | IC50 [1] | IC50 [2] |
| --- | --- | --- | --- |
| COCc1cccc(-n2nnc3cnc(Nc4ccc(CN)cc4)nc32)c1 [Compound 315] |  | < 1e-08 M | < 1e-08 M |
| NCCc1ccc(Nc2ncc3nnn(-c4cccc(CCO)c4)c3n2)cc1 [Compound 316] |  | < 1e-08 M | < 1e-08 M |
| N#CCc1cccc(-n2nnc3cnc(Nc4ccc(CCN)cc4)nc32)c1 [Compound 317] |  | < 1e-08 M | < 1e-08 M |
| COCCOCc1cccc(-n2nnc3cnc(Nc4ccc(CCN)cc4)nc32)c1 [Compound 318] |  | 1e-08 to 1e-07 M | 1e-08 to 1e-07 M |
| COCCOc1cccc(-n2nnc3cnc(Nc4ccc(CCN)cc4)nc32)c1 [Compound 319] |  | 1e-08 to 1e-07 M | 1e-08 to 1e-07 M |
| COCc1cccc(-n2nnc3cnc(Nc4ccc(CCN)cc4)nc32)c1 [Compound 320] |  | 1e-08 to 1e-07 M | 1e-08 to 1e-07 M |
| NCCc1ccc(Nc2ncc3nnn(-c4cccc(F)c4)c3n2)cc1 [Compound 321] |  | 1e-08 to 1e-07 M | 1e-08 to 1e-07 M |
| CNC(=O)c1ccc(Nc2ncc3nnn(-c4cccc(OCCOC)c4)c3n2)cc1 [Compound 325] |  | < 1e-08 M | 1e-08 to 1e-07 M |
| COCCOc1cccc(-n2nnc3cnc(Nc4ccc(C(=O)N(C)C)cc4)nc32)c1 [Compound 326] |  | 1e-08 to 1e-07 M | 1e-08 to 1e-07 M |
| CNC(=O)c1ccc(Nc2ncc3nnn(-c4cccc(COCCOC)c4)c3n2)cc1 [Compound 327] |  | < 1e-08 M | < 1e-08 M |
| COCCOCc1cccc(-n2nnc3cnc(Nc4ccc(C(=O)N(C)C)cc4)nc32)c1 [Compound 328] |  | < 1e-08 M | < 1e-08 M |
| CNC(=O)c1ccc(Nc2ncc3nnn(-c4cccc(CCO)c4)c3n2)cc1 [Compound 329] |  | < 1e-08 M | < 1e-08 M |
| CN(C)C(=O)c1ccc(Nc2ncc3nnn(-c4cccc(CCO)c4)c3n2)cc1 [Compound 330] |  | < 1e-08 M | < 1e-08 M |
| CNC(=O)c1ccc(Nc2ncc3nnn(-c4cccc(CC#N)c4)c3n2)cc1 [Compound 331] |  | 1e-08 to 1e-07 M | 1e-08 to 1e-07 M |
| CN(C)C(=O)c1ccc(Nc2ncc3nnn(-c4cccc(CC#N)c4)c3n2)cc1 [Compound 332] |  | < 1e-08 M | < 1e-08 M |
| CNC(=O)c1ccc(Nc2ncc3nnn(-c4cccc(COC)c4)c3n2)cc1 [Compound 333] |  | < 1e-08 M | < 1e-08 M |
| COCc1cccc(-n2nnc3cnc(Nc4ccc(C(=O)N(C)C)cc4)nc32)c1 [Compound 334] |  | < 1e-08 M | < 1e-08 M |
| COCCOc1cccc(-n2nnc3cnc(Nc4ccc(Cl)cc4)nc32)c1 [Compound 335] |  | 1e-08 to 1e-07 M | 1e-08 to 1e-07 M |
| COCCOCc1cccc(-n2nnc3cnc(Nc4ccc(Cl)cc4)nc32)c1 [Compound 336] |  | < 1e-08 M | < 1e-08 M |
| N#CCc1cccc(-n2nnc3cnc(Nc4ccc(Cl)cc4)nc32)c1 [Compound 337] |  | < 1e-08 M | < 1e-08 M |
| COCc1cccc(-n2nnc3cnc(Nc4ccc(Cl)cc4)nc32)c1 [Compound 338] |  | < 1e-08 M | < 1e-08 M |

From patent US7560458B2, “Triazolopyrimidine derivatives as glycogen synthase kinase 3 inhibitors” (Janssen Pharmaceutica, N.V., priority 2003, dated 2009)
